According to patent US6723702B2, “Use of relaxin treat diseases related to vasoconstriction” (RAS Medical, Inc., priority 2000, dated 2004):

What was measured:
conscious rats = experiment: Ringer's solution time control during chronic infusion of porcine RLX; assay type: in vivo, rat; details: RLX 4 μg/hour s.c. day 5
Method: At least 7 days after the implantation of vascular and bladder catheters, osmotic minipumps containing either porcine RLX (4 μg/hour) or vehicle (Ringer's solution) were implanted in intact, female rats (n=7 and 6 rats, respectively). Renal function and MAP were measured on day 5 of relaxin infusion (three 30-minute urine and midpoint blood collections). Next, an infusion of L-NAME (2 μg/minute, a substrate competitive inhibitor of NO synthase) was administered intravenously (i.v.) by infusion pump (Model 200, KD Scientific, Boston, Mass.). Four 1-hour urine collections with midpoint blood samples were collected for the assessment of GFR, ERPF, and ERVR during the L-NAME administration. Identical procedures were performed on additional animals chronically administered porcine RLX (n=5) or vehicle (n=5), except that ANG II (3 ng/minute) was infused rather than L-NAME. Finally, another four, age-matched control rats were administered Ringer's solution instead of either L-NAME or ANG II on day 5 of porcine RLX infusion.
Another group of rats chronically treated with porcine RLX was administered Ringer's solution instead of L-NAME or ANG II, and thus served as time controls. Neither MAP nor any of the renal parameters were consistently altered over the 6 hours or so of vehicle infusion, as shown in Table 3. Values are provided as mean±SEM. Relaxin, RLX. n=4 rats. Ringer's solution was infused at the same flow rate as L-NAME (Table 1) or ANG II (Table 2), 12.5 μl/min. RLX was infused at 4 μg/hour by osmotic minipump s.c.

[1] = Serum rhRLX, quantitative sandwich immunoassay (Example 2); assay type: in vivo, rat; details: 4 μg/hour
Source text: The technique of urine collection has proven to be reliable. Conrad and Colpoys (1986) J. Clin. Invest. 77:236-245; Danielson and Conrad (1995) J. Clin. Invest. 96:482-490; and Danielson and Conrad (1996) Circ. Res. 79:1161-1166. Indeed, after reaching steady-state in this study, the excretion rates of IN and PAH were 91±3 and 100±4% of their respective infusions. After measuring baseline mean arterial pressure and renal function, an osmotic minipump (model 2ML1, Alza Co., Palo Alto Calif.) containing either recombinant human relaxin (rhRLX; n=12 rats) or vehicle (n=7) was implanted subcutaneously on the back using light ether anesthesia. […] Five days later, mean arterial pressure (MAP), glomerular filtration rate (GFR), effective renal plasma flow (ERPF), and other parameters were again assessed as describe above. At this time, the excretion rates of IN and PAH were 91±3 and 98±2% of their respective infusion rates. […]
Inulin concentration in plasma and urine was measured by the anthrone method, and PAH was determined by the method of Bratton and Marshall as modified by Smith. […] Plasma sodium was measured by a Kodak Ektachem Instrument (Rochester, N.Y.). Plasma osmolality was determined by freezing point depression (Advanced Osmometer, Model 3MO, Advanced Instruments, Needham Heights Mass.). […] The rhRLX in serum was measured using a quantitative sandwich immunoassay, again in a blinded fashion. […]

human subjects = experiment: Clinical trial: blood pressure and creatinine clearance; assay type: in vivo
Method: A clinical trial was conducted with human subjects, age 18 to 70 years. Subjects were treated with either 10 μg relaxin/kg body weight/day (minimum of 36 subjects), 25 μg relaxin/kg body weight/day (minimum of 72 subjects), or placebo (minimum of 72 subjects) for 24 weeks. Administration was by continuous subcutaneous infusion, using a pump. The relaxin was recombinant human relaxin (rhRlx). At various time points, diastolic blood pressure, systolic blood pressure, and creatinine clearance (as a measure of renal function) were measured. Creatinine clearance was calculated using the following formulas:
Creatinine clearance=((140−age)×weight (kg)/72×serum creatinine (mg/dL))×0.85
Creatinine clearance=(140−age)×weight (kg)/72×serum creatinine (mg/dL)
The change in each measured parameter was calculated (value at week x-week 0 value). […] The threshold for obtaining this effect was greater than 10 μg rhRLXN/kg/day. […] This latter result indicates an increase in blood flow.

[2] = Baseline before Ringer's solution
[3] = Ringer's solution 12.5 μl/min, 60 min
[4] = Ringer's solution 12.5 μl/min, 120 min
[5] = Ringer's solution 12.5 μl/min, 180 min
[6] = Ringer's solution 12.5 μl/min, 240 min

Which results are given for “Porcine RLX: lyophilized, purified porcine relaxin (Sherwood and O'Byrne 1974), dissolved in Ringer's solution”?
ERPF (conscious rats; [2]): 12,927; ERVR (conscious rats; [2]): 5.93; GFR (conscious rats; [2]): 2997; MAP (conscious rats; [2]): 119; ERPF (conscious rats; [3]): 12,630; ERVR (conscious rats; [3]): 6.19; GFR (conscious rats; [3]): 3008; MAP (conscious rats; [3]): 123; ERPF (conscious rats; [4]): 12,347; ERVR (conscious rats; [4]): 6.40; GFR (conscious rats; [4]): 3086; MAP (conscious rats; [4]): 121; ERPF (conscious rats; [5]): 12,353; ERVR (conscious rats; [5]): 6.52; GFR (conscious rats; [5]): 3077; MAP (conscious rats; [5]): 122; ERPF (conscious rats; [6]): 12,090; ERVR (conscious rats; [6]): 6.53; GFR (conscious rats; [6]): 3223; MAP (conscious rats; [6]): 121

What does the source list for “rhRLX: recombinant human relaxin, identical in amino acid sequence to the product of the human H2 gene; A chain of 24, B chain of 29 amino acids”?
mean serum concentration of rhRLX ([1]; female rats, day 5): 16.6 ± 1.5 ng/mL; mean serum concentration of rhRLX ([1]; male rats, day 5, n=12): 12.3 ± 0.7 ng/mL; renal function, as measured by creatinine clearance (human subjects; 10 μg rhRLXN/kg/day (FIG. 12)): improvement; renal function, as measured by creatinine clearance (human subjects; 25 μg rhRLXN/kg/day (FIG. 13)): improvement; diastolic pressure (human subjects; 25 μg/kg/day s.c. infusion, about week 2 through week 24 (FIG. 10)): reduced; systolic pressure (human subjects; 25 μg/kg/day s.c. infusion, about week 2 through week 24 (FIG. 11)): reduced; threshold for reducing diastolic and systolic pressure (human subjects; human, in vivo): greater than 10 μg rhRLXN/kg/day
